Assay results from ChEMBL document CHEMBL1201862, “PubChem BioAssay data set” (2004).
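Where inhibition never reached the appropriate level, the endpoint shown equals the highest concentration tested. Otherwise, values were interpolated linearly from a five-concentration, 48-hour dose response in 96-well plates. Here, GI50 denotes the concentration required for 50% inhibition of growth.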 Activity calls are given as the source filed them. No stated cut-off is given here; in the data, active = GI50 up to about 1.1 µM and inactive = higher.

Legend:
Experiment in all cases: NCI-60 cell line screen, 48 h
Malme-3M = test system: Malme-3M
MDA-MB-435 = test system: MDA-MB-435
SK-MEL-5 = test system: SK-MEL-5
HOP-62 = test system: HOP-62
CCRF-CEM = test system: CCRF-CEM
SK-OV-3 = test system: SK-OV-3
UACC-257 = test system: UACC-257
HL-60 = test system: HL-60
COLO 205 = test system: COLO 205
SNB-75 = test system: SNB-75
LOX IMVI = test system: LOX IMVI
NCI-H23 = test system: NCI-H23
UACC-62 = test system: UACC-62
KM12 = test system: KM12
RPMI-8226 = test system: RPMI-8226
HOP-92 = test system: HOP-92
MCF7 = test system: MCF7
K562 = test system: K562
MDA-N = test system: MDA-N
SF-268 = test system: SF-268

Measured: GI50

OCCNCNc1nc(NCNCCO)nc(N(CNCCO)CNCCO)n1
inactive: Malme-3M 18.5 µM | MDA-MB-435 18.2 µM | SK-MEL-5 15.1 µM | HOP-62 19.5 µM | CCRF-CEM 12.2 µM | SK-OV-3 > 43.7 µM | UACC-257 18.2 µM | HL-60 20.5 µM | COLO 205 15.7 µM | SNB-75 24.7 µM | LOX IMVI 17 µM | NCI-H23 21.2 µM | UACC-62 18.8 µM | KM12 39.4 µM | RPMI-8226 > 43.8 µM | HOP-92 21.9 µM | MCF7 28.1 µM | K562 19.9 µM | MDA-N 19.2 µM | SF-268 23.7 µM

COC(=O)c1ccccc1CC1Cc2ccc3c(c2C1=O)CCC3 (stereo not given)
inactive: Malme-3M 28.8 µM | MDA-MB-435 24.9 µM | SK-MEL-5 23 µM | HOP-62 > 100 µM | CCRF-CEM 55.8 µM | SK-OV-3 > 100 µM | UACC-257 32.4 µM | HL-60 16.6 µM | COLO 205 29.9 µM | SNB-75 13.8 µM | LOX IMVI 29.5 µM | NCI-H23 39.6 µM | UACC-62 39.5 µM | KM12 64.9 µM | RPMI-8226 30.9 µM | HOP-92 22.4 µM | MCF7 20.7 µM | K562 33.2 µM | MDA-N 33.5 µM | SF-268 > 100 µM

O=C(/C=C/c1ccccc1)c1ccccc1 [CHALCONE]
inactive: Malme-3M > 10 µM | MDA-MB-435 > 8.13 µM | SK-MEL-5 > 10 µM | HOP-62 > 10 µM | CCRF-CEM > 4.83 µM | SK-OV-3 > 10 µM | UACC-257 > 10 µM | HL-60 4.07 µM | COLO 205 > 10 µM | SNB-75 > 10 µM | LOX IMVI 1.9 µM | NCI-H23 > 10 µM | UACC-62 > 10 µM | KM12 3.78 µM | RPMI-8226 > 4.85 µM | HOP-92 > 10 µM | MCF7 2.7 µM | K562 > 4.84 µM | MDA-N > 10 µM | SF-268 > 10 µM

CC(Oc1ccccc1)C(=O)NNC(=O)OC(C)(C)C (stereo not given)
inactive: Malme-3M > 100 µM | MDA-MB-435 > 100 µM | SK-MEL-5 > 100 µM | HOP-62 > 100 µM | CCRF-CEM > 100 µM | SK-OV-3 > 100 µM | UACC-257 > 100 µM | HL-60 > 100 µM | COLO 205 > 100 µM | SNB-75 > 100 µM | LOX IMVI > 100 µM | NCI-H23 > 100 µM | UACC-62 > 100 µM | KM12 > 100 µM | RPMI-8226 > 100 µM | HOP-92 > 100 µM | MCF7 > 100 µM | K562 > 100 µM | MDA-N > 100 µM | SF-268 > 100 µM

COC(=O)N/N=C(/c1nc2ccc([N+](=O)[O-])cc2nc1O)C(O)c1ccc(OC)c(OC)c1 (stereo not given)
inactive: Malme-3M > 100 µM | MDA-MB-435 > 100 µM | SK-MEL-5 29.8 µM | HOP-62 > 60.5 µM | CCRF-CEM 37.8 µM | SK-OV-3 > 100 µM | UACC-257 47.1 µM | HL-60 > 68.5 µM | COLO 205 39.4 µM | SNB-75 > 100 µM | LOX IMVI 28.5 µM | NCI-H23 > 76.7 µM | UACC-62 > 100 µM | KM12 49.9 µM | RPMI-8226 41.9 µM | HOP-92 > 100 µM | MCF7 88.1 µM | K562 55.2 µM | MDA-N > 100 µM | SF-268 > 81.1 µM
